Results from publication PMC7407272, “Induction of Lysosome Membrane Permeabilization as a Therapeutic Strategy to Target Pancreatic Cancer Stem Cells” (Cancers, 2020).

Assays:
PDPK1 = biological target: T1, PDPK1 (Homo sapiens, UniProt O15530); test: KINOMEscan; assay type: binding; conditions: read-out: % Ctrl
T1 construct: purchased DiscoveRx KINOMEscan

ASK1 = biological target: T2, ASK1 (Homo sapiens, UniProt Q99683); test: KINOMEscan; assay type: binding; conditions: read-out: % Ctrl
T2 construct: purchased DiscoveRx KINOMEscan

IKK-beta = biological target: T3, IKK-beta (Homo sapiens, UniProt O14920); test: KINOMEscan; assay type: binding; conditions: read-out: % Ctrl
T3 construct: purchased DiscoveRx KINOMEscan

KIT(D816V) = biological target: T4, KIT(D816V) (Homo sapiens, UniProt P10721, D816V); test: KINOMEscan; assay type: binding; conditions: read-out: % Ctrl
T4 construct: purchased DiscoveRx KINOMEscan

RIPK2 = biological target: T5, RIPK2 (Homo sapiens, UniProt O43353); test: KINOMEscan; assay type: binding; conditions: read-out: % Ctrl
T5 construct: purchased DiscoveRx KINOMEscan

SIK2 = biological target: T6, SIK2 (Homo sapiens, UniProt Q9H0K1); test: KINOMEscan; assay type: binding; conditions: read-out: % Ctrl
T6 construct: purchased DiscoveRx KINOMEscan

EPHA1 = biological target: T7, EPHA1 (Homo sapiens, UniProt P21709); test: KINOMEscan; assay type: binding; conditions: read-out: % Ctrl
T7 construct: purchased DiscoveRx KINOMEscan

TYK2(JH2D.-pseudoK.) = biological target: T8, TYK2(JH2D.-pseudoK.) (Homo sapiens, UniProt P29597); test: KINOMEscan; assay type: binding; conditions: read-out: % Ctrl
T8 construct: TYK2(JH2D.-pseudoK.); purchased DiscoveRx KINOMEscan

NEK4 = biological target: T9, NEK4 (Homo sapiens, UniProt P51957); test: KINOMEscan; assay type: binding; conditions: read-out: % Ctrl
T9 construct: purchased DiscoveRx KINOMEscan

FAK = biological target: T10, FAK (Homo sapiens, UniProt Q05397); test: KINOMEscan; assay type: binding; conditions: read-out: % Ctrl
T10 construct: purchased DiscoveRx KINOMEscan

PDAC1 xenografts = test: PDX treatment in nude mice; assay type: in vivo, NU-Foxn1nu nude mice; conditions: PDAC1 PDX; GEM 125 mg/kg i.p. biweekly, SIR 30 mg/kg oral gavage; 23 days
Description: (§1) Cells were analyzed with a 4-laser Attune NxT Acoustic Cytometer (ThermoFisher Scientific). Cells and digested tumors (as described in [41]) were resuspended in FLOW buffer (1X PBS; 3 mM EDTA (v/v); 3% FBS (v/v)), and the following fluorescently-tagged antibodies were used to label cells for 30 min at 4 °C: Mouse monoclonal anti-human CD133-PE (1:20, Cat no. 130-110-962, Miltenyi, Bergisch Gladbach, Germany), Mouse monoclonal anti-human CD133-APC (1:20, Cat no. 130-111-080, Miltenyi, Bergisch Gladbach, Germany), mouse monoclonal anti-human C-X-C chemokine receptor type 4- Phycoerythrin (CXCR4-PE) (1:20, Cat no. 130-117-354, Miltenyi, Bergisch Gladbach, Germany), or mouse monoclonal anti-human Epithelial cell adhesion molecule-fluorescein isothiocyanate (EpCAM-FITC) (1:20, Cat no. 130-111-115, Miltenyi, Bergisch Gladbach, Germany). Autofluorescent cells were excited with blue laser 488nm and selected as the intersection with the filters 530/40 and 580/30 as previously described. For lysosomes quantification, Acridine Orange (AO) (A1301, Thermo Fisher Scientific, Waltham, MA, USA) or Lysotracker Deep Red (DR) (L12492, Molecular probes, Life Technologies, Waltham, MA, USA) were used. AO fluorescence was assessed with two combinations of excitation and emission spectra: BL1 […] BL3 (Ex488/Em695/40, equal to the far-red channel (>670 nm)) Lysotracker DR fluorescence was assessed with RL1 (Ex638/Em670/14). Bafilomycin A1 (100 nM, Calbiochem, San Diego, CA, USA) was included as a positive control for lysosome disruption. For Annexin V staining, floating and attached cells were pooled and resuspended in 1× AnnexinV staining buffer containing AnnexinV-APC diluted 1:20 (Biotium, Freemont, CA, USA) and incubated for 20 min at room temperature prior to flow cytometric analysis. For all assays, DAPI was used to mark and exclude dead cells, and data were analyzed using the software FlowJo v9.3 (Tree Star Inc., Ashland, OR, USA).
(§2) Female 6- to 8-week-old NU-Foxn1nu nude mice (Envigo, Spain) were subcutaneously injected with control or pre-treated 1 × 10^4 PDAC cells in 50 µL of Matrigel^TM (Corning). Tumor growth was monitored bi-weekly for up to 10 weeks. For Siramesine experiments, mice were subcutaneously implanted with PDAC1 and PDAC3 PDXs. After 4 weeks of tumor growth, mice were randomized into treatment groups (5 mice per group). Mice were treated with Siramesine twice a week (30 mg/kg by oral gavage formulated in 0.5% methylcellulose 15 cP in 0.9% NaCl solution) for ~4 weeks. Gemcitabine (GEMZAR®, Eli Lilly, Indianapolis, IN, USA) was administered twice a week (125 mg/kg i.p.) for ~4 weeks. Tumor volumes (mm^3) were determined twice per week using a digital caliper. Mice were sacrificed at 24 days post treatment initiation and tumors were extracted and analyzed by flow cytometry as described above. For second generation tumor formation, 1000 and 100 cells of indicated treatment groups were resuspended in Matrigel ^TM and injected subcutaneously in recipient NU-Foxn1nu nude mice and tumor formation was monitored for 10 weeks. Mice were housed according to institutional guidelines and all experiments were performed in compliance with the institutional guidelines for the welfare of experimental animals approved by the Universidad Autónoma de Madrid Ethics Committee (CEI 60-1057-A068) or by the Instituto de Salud Carlos III Ethics Committee (CBA12_2014-v3) and La Comunidad de Madrid (PROEX 335/14 or PROEX 53/14) and in accordance with the guidelines for Ethical Conduct in the Care and Use of Animals as stated in The International Guiding Principles for Biomedical Research involving Animals, developed by the Council for International Organizations of Medical Sciences (CIOMS).

PDAC3 xenografts = test: PDX treatment in nude mice; assay type: in vivo, NU-Foxn1nu nude mice
Description: as §1, §2

T7 sequence (P21709 26-976): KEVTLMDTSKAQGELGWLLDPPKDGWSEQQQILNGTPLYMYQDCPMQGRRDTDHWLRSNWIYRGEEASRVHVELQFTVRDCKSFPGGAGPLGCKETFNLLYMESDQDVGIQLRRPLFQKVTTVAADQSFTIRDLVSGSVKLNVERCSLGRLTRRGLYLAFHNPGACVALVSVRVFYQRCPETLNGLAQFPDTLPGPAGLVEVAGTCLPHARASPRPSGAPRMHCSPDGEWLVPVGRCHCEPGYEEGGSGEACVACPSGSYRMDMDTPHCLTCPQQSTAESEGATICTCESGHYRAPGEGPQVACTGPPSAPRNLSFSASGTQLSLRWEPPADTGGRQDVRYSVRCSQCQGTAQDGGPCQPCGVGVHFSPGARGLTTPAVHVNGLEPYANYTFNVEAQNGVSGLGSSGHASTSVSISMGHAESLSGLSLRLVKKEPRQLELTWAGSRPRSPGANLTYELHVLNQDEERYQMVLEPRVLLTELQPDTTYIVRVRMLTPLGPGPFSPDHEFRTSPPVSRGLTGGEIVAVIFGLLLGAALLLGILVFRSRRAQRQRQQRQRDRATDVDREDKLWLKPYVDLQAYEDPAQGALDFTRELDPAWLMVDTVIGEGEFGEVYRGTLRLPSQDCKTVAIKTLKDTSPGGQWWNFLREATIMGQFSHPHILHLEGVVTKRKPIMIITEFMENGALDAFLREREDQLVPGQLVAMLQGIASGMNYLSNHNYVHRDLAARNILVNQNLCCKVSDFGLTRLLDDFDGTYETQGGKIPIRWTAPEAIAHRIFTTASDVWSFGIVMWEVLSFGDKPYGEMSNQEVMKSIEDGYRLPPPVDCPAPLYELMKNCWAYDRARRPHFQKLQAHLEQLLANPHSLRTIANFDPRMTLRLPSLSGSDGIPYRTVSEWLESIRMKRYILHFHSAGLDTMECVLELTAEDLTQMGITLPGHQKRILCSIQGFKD
T1 sequence (O15530 whole entry): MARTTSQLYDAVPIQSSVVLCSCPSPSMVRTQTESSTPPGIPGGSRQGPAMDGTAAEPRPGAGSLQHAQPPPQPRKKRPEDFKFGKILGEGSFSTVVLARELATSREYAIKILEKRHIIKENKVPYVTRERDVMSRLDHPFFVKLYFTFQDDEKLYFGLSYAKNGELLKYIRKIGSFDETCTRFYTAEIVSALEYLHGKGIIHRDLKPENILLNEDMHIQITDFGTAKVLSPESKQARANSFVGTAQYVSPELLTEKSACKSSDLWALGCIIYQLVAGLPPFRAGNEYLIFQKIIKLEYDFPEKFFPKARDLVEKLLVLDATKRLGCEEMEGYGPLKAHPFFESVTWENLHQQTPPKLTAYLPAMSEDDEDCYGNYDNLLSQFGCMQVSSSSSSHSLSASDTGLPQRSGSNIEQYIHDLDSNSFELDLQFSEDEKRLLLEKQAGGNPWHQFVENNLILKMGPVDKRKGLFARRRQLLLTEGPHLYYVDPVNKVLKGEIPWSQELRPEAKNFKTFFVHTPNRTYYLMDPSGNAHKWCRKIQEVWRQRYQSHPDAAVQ
T4 sequence (P10721 26-976 D816V): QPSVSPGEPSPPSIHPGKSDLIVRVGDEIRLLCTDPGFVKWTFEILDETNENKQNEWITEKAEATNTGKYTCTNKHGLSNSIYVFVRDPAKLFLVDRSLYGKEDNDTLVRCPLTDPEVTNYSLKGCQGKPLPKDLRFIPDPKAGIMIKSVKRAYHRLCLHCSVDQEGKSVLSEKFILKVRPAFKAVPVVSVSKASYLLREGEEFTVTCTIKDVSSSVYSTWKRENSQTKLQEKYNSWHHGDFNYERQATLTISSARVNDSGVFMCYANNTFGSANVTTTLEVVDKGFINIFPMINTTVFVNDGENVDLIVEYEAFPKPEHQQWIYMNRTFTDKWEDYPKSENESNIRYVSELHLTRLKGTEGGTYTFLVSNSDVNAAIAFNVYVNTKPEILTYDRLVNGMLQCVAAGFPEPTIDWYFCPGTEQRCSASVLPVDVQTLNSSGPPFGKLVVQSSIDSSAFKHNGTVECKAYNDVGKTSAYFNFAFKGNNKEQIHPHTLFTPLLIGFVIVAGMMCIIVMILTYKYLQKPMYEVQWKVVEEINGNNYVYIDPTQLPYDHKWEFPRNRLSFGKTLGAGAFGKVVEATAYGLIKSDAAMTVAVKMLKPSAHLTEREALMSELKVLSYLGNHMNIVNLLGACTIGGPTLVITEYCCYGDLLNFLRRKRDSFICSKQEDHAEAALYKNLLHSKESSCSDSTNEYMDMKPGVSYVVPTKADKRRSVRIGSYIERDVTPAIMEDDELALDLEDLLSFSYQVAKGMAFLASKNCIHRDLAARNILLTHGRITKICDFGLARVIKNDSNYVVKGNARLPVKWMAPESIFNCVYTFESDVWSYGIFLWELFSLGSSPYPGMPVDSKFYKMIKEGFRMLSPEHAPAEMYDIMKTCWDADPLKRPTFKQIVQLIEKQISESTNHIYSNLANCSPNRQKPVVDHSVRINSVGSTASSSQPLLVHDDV
T10 sequence (Q05397 whole entry): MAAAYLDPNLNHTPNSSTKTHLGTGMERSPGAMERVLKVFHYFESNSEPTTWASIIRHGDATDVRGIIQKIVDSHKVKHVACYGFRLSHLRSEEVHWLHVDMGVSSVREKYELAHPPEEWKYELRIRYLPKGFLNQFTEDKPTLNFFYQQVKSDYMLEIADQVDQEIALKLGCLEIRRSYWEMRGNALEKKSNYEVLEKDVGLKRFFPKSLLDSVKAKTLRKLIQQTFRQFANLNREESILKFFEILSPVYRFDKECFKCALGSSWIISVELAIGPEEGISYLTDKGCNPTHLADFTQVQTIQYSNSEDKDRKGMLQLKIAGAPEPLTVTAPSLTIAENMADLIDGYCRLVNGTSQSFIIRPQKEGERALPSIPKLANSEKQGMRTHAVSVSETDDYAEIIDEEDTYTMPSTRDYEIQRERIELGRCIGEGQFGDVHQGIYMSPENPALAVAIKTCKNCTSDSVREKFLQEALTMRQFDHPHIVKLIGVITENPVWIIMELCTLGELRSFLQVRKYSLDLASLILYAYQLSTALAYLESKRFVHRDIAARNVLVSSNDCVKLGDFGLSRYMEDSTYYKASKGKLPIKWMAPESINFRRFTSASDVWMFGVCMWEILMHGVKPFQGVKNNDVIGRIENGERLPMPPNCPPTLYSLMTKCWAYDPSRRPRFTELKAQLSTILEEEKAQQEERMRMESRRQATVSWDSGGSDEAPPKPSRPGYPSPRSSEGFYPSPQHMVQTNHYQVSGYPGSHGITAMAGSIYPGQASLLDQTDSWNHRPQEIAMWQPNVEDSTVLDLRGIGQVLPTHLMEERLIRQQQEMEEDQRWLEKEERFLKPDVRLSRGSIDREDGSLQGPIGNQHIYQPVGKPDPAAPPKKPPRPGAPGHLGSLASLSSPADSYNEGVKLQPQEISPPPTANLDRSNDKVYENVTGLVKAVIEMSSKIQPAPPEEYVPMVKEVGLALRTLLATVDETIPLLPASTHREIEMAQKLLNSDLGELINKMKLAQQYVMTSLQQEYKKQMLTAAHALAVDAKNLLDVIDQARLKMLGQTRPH
T6 sequence (Q9H0K1 whole entry): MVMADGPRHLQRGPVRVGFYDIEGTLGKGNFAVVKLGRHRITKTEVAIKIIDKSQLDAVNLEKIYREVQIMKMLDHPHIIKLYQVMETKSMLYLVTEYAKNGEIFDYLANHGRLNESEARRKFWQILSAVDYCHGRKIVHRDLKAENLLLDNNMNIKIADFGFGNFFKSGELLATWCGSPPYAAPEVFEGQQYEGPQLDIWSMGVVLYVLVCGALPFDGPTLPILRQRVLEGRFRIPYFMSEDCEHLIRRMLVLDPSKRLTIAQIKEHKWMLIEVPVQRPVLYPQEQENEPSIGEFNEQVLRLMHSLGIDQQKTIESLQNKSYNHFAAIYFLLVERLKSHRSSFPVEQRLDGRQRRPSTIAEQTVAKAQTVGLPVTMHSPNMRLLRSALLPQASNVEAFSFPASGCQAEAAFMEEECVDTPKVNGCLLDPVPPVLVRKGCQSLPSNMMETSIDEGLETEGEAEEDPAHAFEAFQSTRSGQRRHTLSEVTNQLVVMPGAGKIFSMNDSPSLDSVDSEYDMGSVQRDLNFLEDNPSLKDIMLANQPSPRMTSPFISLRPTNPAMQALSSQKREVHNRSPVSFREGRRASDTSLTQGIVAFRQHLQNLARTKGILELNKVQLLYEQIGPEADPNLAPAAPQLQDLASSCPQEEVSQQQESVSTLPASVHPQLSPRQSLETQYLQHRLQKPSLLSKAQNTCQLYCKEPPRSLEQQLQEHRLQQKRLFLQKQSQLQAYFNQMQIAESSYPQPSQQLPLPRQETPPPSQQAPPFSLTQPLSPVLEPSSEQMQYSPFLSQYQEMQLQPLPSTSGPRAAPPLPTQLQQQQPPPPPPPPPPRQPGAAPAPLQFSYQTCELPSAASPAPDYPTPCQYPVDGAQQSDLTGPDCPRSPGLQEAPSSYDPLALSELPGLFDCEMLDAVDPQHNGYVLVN
T5 sequence (O43353 whole entry): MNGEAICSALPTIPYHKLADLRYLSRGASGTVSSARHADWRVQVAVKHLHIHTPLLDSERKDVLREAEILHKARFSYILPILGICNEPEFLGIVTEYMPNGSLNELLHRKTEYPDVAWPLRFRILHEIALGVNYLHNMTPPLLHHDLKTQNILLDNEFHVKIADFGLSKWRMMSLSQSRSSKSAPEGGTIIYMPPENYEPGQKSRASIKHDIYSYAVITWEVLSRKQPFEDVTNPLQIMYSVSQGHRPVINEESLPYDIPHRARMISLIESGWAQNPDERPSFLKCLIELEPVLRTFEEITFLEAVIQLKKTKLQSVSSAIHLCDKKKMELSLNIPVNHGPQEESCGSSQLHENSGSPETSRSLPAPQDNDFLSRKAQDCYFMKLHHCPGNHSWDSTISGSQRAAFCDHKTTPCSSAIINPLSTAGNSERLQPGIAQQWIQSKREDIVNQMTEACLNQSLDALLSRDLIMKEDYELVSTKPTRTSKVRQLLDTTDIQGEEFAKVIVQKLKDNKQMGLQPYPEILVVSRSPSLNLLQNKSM

Structure (SMILES)	remaining binding at 1 µM (PDPK1)	remaining binding at 1 µM (ASK1)	remaining binding at 1 µM (IKK-beta)	remaining binding at 1 µM (KIT(D816V))	remaining binding at 1 µM (RIPK2)	remaining binding at 1 µM (SIK2)	remaining binding at 1 µM (EPHA1)	remaining binding at 1 µM (TYK2(JH2D.-pseudoK.))	remaining binding at 1 µM (NEK4)	remaining binding at 1 µM (FAK)	tumor volume versus control (PDAC1 xenografts)	tumor volume versus control (PDAC3 xenografts; PDAC3 PDX, GEM 125 mg/kg i.p. biweekly, SIR 30 mg/kg oral gavage, 23 days)	percentage of CD133+ and CD133+/CXCR4+ in tumors (PDAC3 xenografts; PDAC3 tumors, 30 mg/kg)
CN1CCC(CNc2ccc3ncc(C(=O)Nc4cccc(OC(F)(F)F)c4)n3n2)CC1 [Cpd 2]	100%	100%	100%	89%	100%	97%	100%	12%	100%	100%			
Fc1ccc(-n2cc(CCCCN3CCC4(CC3)OCc3ccccc34)c3ccccc32)cc1 [siramesine]											no significant differences	no significant differences	reduce
